Experimental data as given in patent publication US20160201067A1, “Composition for Enhancing Transgene Expression in Eukaryotic Cells and Method for Enhancing Production of a Target Protein Encoded by a Transgene” (SILEZIA GROUP PTE. LTD, priority 2013, published 2016).

Columns and labels:
[1] = tested on: mouse peritoneal macrophages transduced with Ad-GFP; test: Enhancement of GFP expression in peritoneal macrophages transduced with Ad-GFP, PRR agonists (Example 4); assay type: cell-based; conditions: Ad-GFP 2 × 10^7 PFU/ml, 4 days
Description: Mouse peritoneal macrophages (BALB/c female mice, Stolbovaya breeding nursery) were washed with physiological saline solution, pelleted by centrifugation at 1200 rpm for 10 min, suspended in the complete cell culture medium (CCM, consisting of RPMI-1640 medium supplemented with 10% fetal calf serum, 2 mM L-glutamine, 50 μM of (3-mercaptoethanol, and 10 μg/ml of gentamycin) at a concentration of one million cells per 1 ml, and incubated over night in 90 mm Petri dishes at 37° C. and 5% CO2. On the next day, nonadherent cells were removed by washing with warm phosphate buffered saline (PBS, pH 7.4), and adherent cells were covered with Versene solution, kept at 4° C. for 60 min in a refrigerator, and then detached from the culture dish by washing with Versene solution using 5 ml pipette. […] Cell cultures were incubated for 4 days at 37° C. and 5% CO2.
Confocal microscopy images (FIG. 3A) show macrophages transduced with Ad-GFP and additionally activated by TLR4 agonist (10 μg/ml of APG, right image), as compared to control macrophages transduced with Ad-GFP without addition of APG (left image). […] The quantitative assay of GFP production was carried out using flow cytometry which determined both the absolute number of cells containing GFP and the GFP content in each cell by measuring fluorescence intensity of a single cell. The product of the number of fluorescent cells and the fluorescence intensity of each cell is proportional to the number of synthesized GFP molecules.
As is described earlier, peritoneal macrophages were transduced with Ad-GFP (2×10^7 PFU/ml) in the absence or presence of one of the above mentioned PRR agonists. Cell cultures were incubated at 37° C. and 5% CO2 for four days. After the end of incubation, cells were detached by washing with a cold Versene solution, and the percentage and absolute number of cells having green fluorescence and the intensity of cell fluorescence were determined using a FACSAria II flow cytometer. The absolute count of cells was normalized by calibration beads containing a known concentration of microspheres (CountBright Invitrogen), and discrimination between live and dead cells was carried out using a DNA-specific dye DAPI. Typical histograms of GFP fluorescence signal after the transduction of macrophages by Ad-GFP without additional activation of cells (FIG. 3D) or with additional activation of cells with CL097, the agonist of TLR7 and TLR8 (FIG. 3E), are shown.
The quantitative assessment of the enhancement of target GFP expression was performed by the formula:
K=MFI×N/MFIcontr×Ncontr, (1)
K is the enhancement (fold increase) of GFP expression;
MFI is the mean intensity of fluorescence of cells transduced with Ad-GFP with additional activation by an agonist;
MFIcontr is the mean intensity of fluorescence of cells transduced with Ad-GFP (control) without additional activation;
N is the number of fluorescent cells after the transduction with Ad-GFP with additional activation by an agonist; and
Ncontr is the number of fluorescent cells (control) after the transduction with Ad-GFP without additional activation.

[2] = tested on: mouse peritoneal macrophages; test: Enhancement of transgenic SEAP expression in peritoneal macrophages (Example 6); conditions: TNF-α 10 ng/ml or APG 10 μg/ml vs Ad-SEAP alone
Description: A test liquid was clarified by centrifugation at 14,000 g for 2 min, warmed-up at 65° C. for 5 min to inhibit endogenous phosphatases, then 20 μl aliquots were transferred into each well of a 96-well plate to 130 μl of reaction buffer (0.5 M NaHCO3, 0.5 MM MgCl2, pH 9.8), and incubated at 37° C. for 10 min. Then 50 μl of 60 μM p-nitrophenyl phosphate in reaction buffer were added, and the optical density was measured at 405 nm at fixed intervals. The SEAP activity was expressed in mU/ml, considering 1 mU/ml corresponds to an increase in optical density of 0.04 U per 1 min.
Mouse peritoneal macrophages were obtained and incubated as described in the example 4. Cells were incubated in triplet culture wells with addition of Ad-GFP at 2×10^7 PFU per well in combination with TNF-α (10 ng/ml) or APG (Russian Patent no. 2195308, 10 μg/ml). In the negative control cultures, macrophages were transduced with Ad-SEAP (2×10^7 PFU) without any cell activating compound. After 4 days, the activity of SEAP was measured in the culture medium, as described in the example 2.

## CC(C)Cn1cnc2c(N)nc3ccccc3c21 [Imiquimod, imiquimod]
[1]; agonist 10 μg/ml
  Fold increase in the expression of GFP, calculated according to the formula (1), Mean: 2.03

## ODN 1826
[1]; agonist 0.6 μg/ml
  Fold increase in the expression of GFP, calculated according to the formula (1), Mean: 1.43

## CCOCc1nc2c([nH]1)c(N)nc1ccccc12 [CL097]
[1]; agonist 2.5 μg/ml
  Fold increase in the expression of GFP, calculated according to the formula (1), Mean: 14.2

## lipoteichoic acid [LTA]
[1]; agonist 10 μg/ml
  Fold increase in the expression of GFP, calculated according to the formula (1), Mean: 2.10

## Lauroyl-g-D-Glu-D-mDAP and Lauroyl-g-D-Glu-L-mDAP [C12-iE-DAP]
[1]; agonist 20 μg/ml
  Fold increase in the expression of GFP, calculated according to the formula (1), Mean: 3.1

## TNF-α
[2]
  Enhancement coefficient (SEAP expression in peritoneal macrophages): 1.8

## Flagellin
[1]; agonist 1 μg/ml
  Fold increase in the expression of GFP, calculated according to the formula (1), Mean: 2.13
